The target in the assay is T1, GRK2 (βARK-1) (Homo sapiens, UniProt P25098).
T1 sequence (P25098 1-689): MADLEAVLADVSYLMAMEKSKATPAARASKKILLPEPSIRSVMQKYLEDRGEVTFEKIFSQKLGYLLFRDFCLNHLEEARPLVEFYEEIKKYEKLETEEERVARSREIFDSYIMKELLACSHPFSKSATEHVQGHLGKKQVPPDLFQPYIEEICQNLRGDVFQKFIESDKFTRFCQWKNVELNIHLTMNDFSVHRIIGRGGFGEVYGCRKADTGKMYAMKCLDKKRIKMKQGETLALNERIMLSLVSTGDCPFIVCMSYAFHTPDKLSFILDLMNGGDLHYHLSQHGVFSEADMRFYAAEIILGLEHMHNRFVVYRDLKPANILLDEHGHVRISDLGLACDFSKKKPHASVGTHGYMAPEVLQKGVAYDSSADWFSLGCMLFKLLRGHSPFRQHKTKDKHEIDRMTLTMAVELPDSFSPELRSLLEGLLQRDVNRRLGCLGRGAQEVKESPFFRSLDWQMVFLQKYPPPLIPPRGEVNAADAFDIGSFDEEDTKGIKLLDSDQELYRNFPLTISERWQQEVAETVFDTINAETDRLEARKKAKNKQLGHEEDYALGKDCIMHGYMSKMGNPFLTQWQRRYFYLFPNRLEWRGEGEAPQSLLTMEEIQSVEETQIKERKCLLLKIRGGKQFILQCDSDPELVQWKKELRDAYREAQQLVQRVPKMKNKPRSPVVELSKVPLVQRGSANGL
Nature of the assay: GRK2 (βARK-1) kinase assay: 33P phosphorylation of biotinylated bovine tubulin dimers, scintillation counting. In kind it is biochemical. The settings on record: 100 nM GRK2 pre-incubated with inhibitor 30 min at room temperature; 250 nM tubulin, 3 μM ATP, [γ-33P]-ATP, 30 min reaction. The method, then: The assay determines phosphorylation of biotinylated bovine tubulin dimers (250 nM; TEBU-BIO, # T333) coated to 384 well StreptaWell plates by 100 nM GRK2 which has been pre-incubated with inhibitor cpd. for 30 minutes at room temperature in assay buffer (20 mM Tris-HCl pH 7.4, 2 mM EDTA) containing 2.25% DMSO. The phosphorylation reaction was started by adding tubulin, MgCl2 (10 mM), ATP (3 μM), [γ-^33P]-ATP (0.4 μCi/40 μl) to the preincubated GRK2/compound complex. Then the assay mix was incubated for 30 min at room temperature before the kinase reaction was stopped adding 0.8% BSA, 0.8% Triton X 100, 80 mM EDTA and 400 μM ATP) followed by an 2-24 h incubation at +4° C. Due to the high energy of the […] free ^33P-ATP is removed by a washing step (3× with 100 μl 1×PBS pH 8.0) using a Tecan Power washer 384 to reduce background activity. Bound ^33P is determined by scintillation counting (60 μl scintillator, Ultimagold MV, 30 sec mix) using a Microbeta-counter (delay time 30 min).

Our source for the IC50 values is patent US7910602B2 (Sanofi-Aventis, priority 2005, dated 2011).

`Cn1cc(-c2cc(C(N)=O)nc3[nH]ncc23)c2cc(OCC3CCCNC3)ccc21` (stereo not shown) [Example 3, 4-(1-methyl-5-(piperidin-3-ylmethoxy)-1H-indol-3-yl)-1H-pyrazolo(3,4-b)pyridine-6-carboxylic acid amide]: inhibition was half-maximal at 700 nM (IC50). Regarding `Cn1cc(-c2cc(C(N)=O)nc3[nH]ncc23)c2ccccc21` [Example 4], the concentration for half-maximal inhibition (IC50) (as a rule, the concentration that inhibits the measured activity by half) was determined as 270 nM. As for `Cn1cc(-c2cc(C(N)=O)nc3[nH]ncc23)c2cc(OCC(N)=O)ccc21` [Example 8, 4-(5-Carbamoylmethoxy-1-methyl-1H-indol-3-yl)-1H-pyrazolo[3,4-b]pyridine-6-carboxylic acid amide], the figure is 20 nM; as for `NC(=O)c1cc(-c2cccc(O)c2)c2cn[nH]c2n1` [Example 16], 2100 nM.
